Consider six molecules from patent publication US20210214354A1, “IMIDAZOQUINOLINE COMPOUNDS AND USES THEREOF” (Birdie Biopharmaceuticals, Inc., priority 2018, published 2021).

Read-outs that look alike come from different tables or passages of the source.

One may read the AUC(0-inf) as the area under the concentration-time curve extrapolated to infinity. For orientation: AUC(0-t) means the area under the concentration-time curve up to a stated or last time point. A lower AUC(0-t) goes with less exposure. For orientation: MRT last means a mean duration of stay, worked out from the concentration-time curve. A word on the Vd: it is a proportionality between amount in the body and measured concentration, not a real space. High values mean extensive tissue distribution, low ones confinement near the circulation. By clearance is commonly meant the rate of elimination divided by the concentration. Read a low clearance as a low capacity for elimination. What is called half-life is how long it takes for the measured level to halve. Lower therefore signals rapid decline. What is called EC50 is the concentration needed to bring the measured effect to its halfway point.

The target in data set [1] is T1, hTLR7 (Homo sapiens, UniProt Q9NYK1).
T1 construct: expressed in transfected cells; host or cells: HEK-Blue hTLR7 cells (HEK293-derived SEAP reporter line; own knowledge: commercial line stably transfected with the human TLR7 gene)
T1 sequence (Q9NYK1 27-1049): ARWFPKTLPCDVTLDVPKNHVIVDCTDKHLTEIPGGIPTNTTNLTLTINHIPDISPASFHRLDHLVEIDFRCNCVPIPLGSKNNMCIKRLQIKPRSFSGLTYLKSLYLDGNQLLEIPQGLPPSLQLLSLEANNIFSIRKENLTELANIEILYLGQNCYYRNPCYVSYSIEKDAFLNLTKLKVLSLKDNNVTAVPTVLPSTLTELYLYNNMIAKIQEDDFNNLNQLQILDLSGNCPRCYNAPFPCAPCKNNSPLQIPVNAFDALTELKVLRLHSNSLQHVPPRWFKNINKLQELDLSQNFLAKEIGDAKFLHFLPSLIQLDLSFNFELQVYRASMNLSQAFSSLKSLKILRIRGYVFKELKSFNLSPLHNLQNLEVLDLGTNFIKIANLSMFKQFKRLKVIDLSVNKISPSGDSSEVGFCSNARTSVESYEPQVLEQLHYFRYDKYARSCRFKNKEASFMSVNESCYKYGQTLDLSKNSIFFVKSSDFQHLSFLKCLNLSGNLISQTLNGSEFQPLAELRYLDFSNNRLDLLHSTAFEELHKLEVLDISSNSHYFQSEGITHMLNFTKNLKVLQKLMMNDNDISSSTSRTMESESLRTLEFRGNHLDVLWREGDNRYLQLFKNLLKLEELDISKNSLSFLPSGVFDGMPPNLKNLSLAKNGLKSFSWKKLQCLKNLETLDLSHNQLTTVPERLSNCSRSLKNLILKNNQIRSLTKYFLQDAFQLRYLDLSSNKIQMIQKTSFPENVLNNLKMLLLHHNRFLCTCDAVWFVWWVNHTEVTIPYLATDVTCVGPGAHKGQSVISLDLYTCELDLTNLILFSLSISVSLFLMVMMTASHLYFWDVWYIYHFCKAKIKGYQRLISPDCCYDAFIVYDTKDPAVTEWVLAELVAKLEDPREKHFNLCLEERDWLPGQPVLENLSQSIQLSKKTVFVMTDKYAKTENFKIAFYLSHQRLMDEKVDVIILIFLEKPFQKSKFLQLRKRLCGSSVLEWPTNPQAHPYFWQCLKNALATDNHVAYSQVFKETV
Put plainly: TLR7/8 agonist potency assay in HEK-Blue hTLR7 cells (SEAP reporter). The class given is cell-based. To be noted: about 16 hrs incubation, SEAP at 635 nm; for EC50: read-out: TLR7 Agonistic EC50 (converted). As for the experimental part:
HEK-Blue TLR7 cells can serve to measure the bioactivity of TLR7 through the secretion of embryonic alkalinephosphatase (SEAP) upon NF-κB activation following TLR7 stimulation. Water was used as negative control. After about 16 hrs incubation at 37° C. in 5% CO2, the SEAP was determined by using a spectrophotometer at 635 nm.
(§1) The dose-response curves were fit with four parameter logistic curve (SigmaPlot, version 9.0).

Data set [2] is described as follows: TLR7/8 agonist PK study in SD rats (i.v.). To be noted: 0.08 mg/kg, plasma; for MTRinf: SD rats, i.v.; for AUC(0-inf) / AUC(0-t) / C0 / MRT last / Vd / clearance / half-life: both, Sprague-Dawley (SD), rat, iv.
Protocol: (§2) SPF SD rats were purchased from BioLASCO Taiwan Co. Ltd. Animals were randomly assigned to five groups with 3 males and 3 females in each group before dosing. The body weight variation of animals used were in an interval within ±20 percent of the mean weight for each gender.
(§3) Blood samples (200-350 μL/time point) were obtained through tail vein at pre-dose and 2 min, 5 min, 15 min, 30 min, 1 hr, 2 hr, 4 hr, 6 hr, 8 hr, 12 hr and 24 hr post dosing. The blood samples were collected into tubes containing K2EDTA and maintained on ice no more than 30 minutes, then centrifuged (1500-1750 xg, 15 min, 2-8° C.) for plasma harvest.
(§4) The study samples were prepared and analyzed in parallel using liquid chromatography-tandem mass spectrometry. In pharmacokinetics evaluation following the determined concentrations in rat plasma, pharmacokinetic parameters were calculated using WinNonlin (Pharsight Corporation, version 6.3) with non-compartmental methods.
The target in data set [3] is T2, hTLR8 (Homo sapiens, UniProt Q9NR97).
T2 construct: expressed in transfected cells; host or cells: HEK-Blue hTLR8 cells (HEK293-derived SEAP reporter line; own knowledge: commercial line stably transfected with the human TLR8 gene)
T2 sequence (Q9NR97 27-1041): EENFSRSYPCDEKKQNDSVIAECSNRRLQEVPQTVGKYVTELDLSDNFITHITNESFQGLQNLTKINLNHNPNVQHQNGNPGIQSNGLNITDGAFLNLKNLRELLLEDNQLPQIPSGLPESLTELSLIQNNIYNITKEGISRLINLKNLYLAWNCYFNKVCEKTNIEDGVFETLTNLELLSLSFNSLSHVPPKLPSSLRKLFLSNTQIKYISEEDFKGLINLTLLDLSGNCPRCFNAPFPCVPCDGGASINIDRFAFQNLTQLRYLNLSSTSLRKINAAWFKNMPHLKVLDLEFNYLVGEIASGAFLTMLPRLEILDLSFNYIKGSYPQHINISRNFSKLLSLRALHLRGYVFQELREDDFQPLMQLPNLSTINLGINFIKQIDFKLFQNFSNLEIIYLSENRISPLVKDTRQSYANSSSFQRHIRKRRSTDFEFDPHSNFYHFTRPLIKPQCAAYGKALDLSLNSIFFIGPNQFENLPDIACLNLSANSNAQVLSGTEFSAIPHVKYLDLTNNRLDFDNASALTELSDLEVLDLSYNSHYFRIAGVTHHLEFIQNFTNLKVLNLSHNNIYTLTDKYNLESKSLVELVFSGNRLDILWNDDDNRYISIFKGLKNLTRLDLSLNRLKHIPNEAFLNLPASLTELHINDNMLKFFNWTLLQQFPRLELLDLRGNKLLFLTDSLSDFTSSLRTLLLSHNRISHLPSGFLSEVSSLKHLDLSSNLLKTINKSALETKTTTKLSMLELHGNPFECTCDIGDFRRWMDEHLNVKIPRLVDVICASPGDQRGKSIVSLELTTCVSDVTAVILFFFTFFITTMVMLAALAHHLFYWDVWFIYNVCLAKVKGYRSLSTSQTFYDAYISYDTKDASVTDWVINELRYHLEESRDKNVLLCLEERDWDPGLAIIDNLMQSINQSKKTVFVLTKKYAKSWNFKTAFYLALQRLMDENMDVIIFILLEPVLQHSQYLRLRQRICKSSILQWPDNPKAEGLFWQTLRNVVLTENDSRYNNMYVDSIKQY
The experiment in a line: TLR7/8 agonist potency assay in HEK-Blue hTLR8 cells (SEAP reporter). The class given is cell-based. The note with it: about 16 hrs incubation, SEAP at 635 nm, read-out: TLR8 Agonistic EC50 (converted). On the procedure:
HEK-Blue hTLR8 cells can serve to measure the bioactivity of TLR8 through the secretion of embryonic alkaline phosphatase (SEAP) upon NF-κB activation following TLR8 stimulation. Water was used as negative control. After about 16 hrs incubation at 37° C. in 5% CO2, the SEAP was determined by using a spectrophotometer at 635 nm.
as §1

The conditions of data set [4]: both, Sprague-Dawley (SD), rat, in vivo, iv, 0.08 mg/kg.
Protocol: as §2, §3, §4
Data set [5] is described as follows: in vivo. The note with it: both, Sprague-Dawley (SD), rat, iv, 0.08 mg/kg.
Protocol: as §2, §3, §4

For the molecule `CCCCNc1nc(N)c2[nH]c(=O)n(Cc3ccc(C(=O)NCC(=O)O)cc3)c2n1` [CL264, reference compound], in data set [1], the “TLR7 Agonistic EC50” value turned out to be 0.2602 ± 0.0124 µg/mL.
Consider `CCSCc1nc2c(N)nc3ccccc3c2n1CC(C)(C)O` [Compound 4], for which, in data set [2], the MTRinf was 3.87 ± 1.20 h, the AUC(0-inf) is 66.2 ± 4.81 ng·h/mL, the AUC(0-t) came to 62.5 ± 4.49 ng·h/mL and the C0 turned out to be 258 ± 47.6 ng/mL. In data set [2], the MRT last came to 1.87 ± 0.16 h, the Vd turned out to be 4.67 L/kg, the clearance was 21.6 mL/min/kg and the half-life is 8.46 ± 1.72 h.
On to `CC(C)(O)Cn1c(COCC(F)(F)F)nc2c(N)nc3ccccc3c21` [Compound 2], for which the EC50 in data set [1] is 98.3 nM; in data set [3], 1600 nM.
Take `CCS(=O)(=O)Cc1nc2c(N)nc3ccccc3c2n1CC(C)(C)O` [Compound 6]: in data set [2], the MTRinf was found to be 1.71 ± 0.22 h, the AUC(0-inf) turned out to be 82.8 ± 8.29 ng·h/mL, the AUC(0-t) came to 81.6 ± 8.49 ng·h/mL and the C0 was determined as 224 ± 53.9 ng/mL. In data set [2], this molecule had an MRT last of 1.28 ± 0.19 h, a Vd of 1.82 L/kg, a clearance of 17.1 mL/min/kg and a half-life of 6.46 ± 1.01 h.
Take `CC(C)(O)Cn1c(COC2CC2)nc2c(N)nc3ccccc3c21` [Compound 3]: the EC50 in data set [1] was 124 nM. For the same molecule, the EC50 in data set [3] was 1580 nM. In addition, in data set [2], the MTRinf came out at 4.90 ± 0.87 h, the AUC(0-inf) is 124 ± 9.96 ng·h/mL, the AUC(0-t) was determined as 118 ± 8.92 ng·h/mL and the C0 turned out to be 237 ± 44.2 ng/mL. In data set [2], this molecule had an MRT last of 3.15 ± 0.18 h, a Vd of 3.13 L/kg, a clearance of 11.9 mL/min/kg and a half-life of 7.53 ± 1.03 h.
The molecule `CCOCc1nc2c(N)nc3ccccc3c2n1CC(C)(C)O` [Resiquimod] came in with an MTRinf in data set [4] of 3.87 ± 1.20 h. Further, in data set [5], the AUC(0-inf) amounted to 66.2 ± 4.81 ng·h/mL, the AUC(0-t) turned out to be 62.5 ± 4.49 ng·h/mL, the C0 is 258 ± 47.6 ng/mL and the MRT last stood at 1.87 ± 0.16 h. For the same molecule, in data set [5], the Vd was found to be 4.67 L/kg, the clearance is 21.6 mL/min/kg and the half-life was 8.46 ± 1.72 h.
